According to PubChem BioAssay AID1745844 (Carcinogenic Potency Database (CPDB), 2022):
Several values for one entry are separate records, joined by “and”; a condition that tells them apart may be missing. Equal values may be shown once. Activity calls are given as the source filed them. The rule behind the calls is not given here.

Test system: rodent lifetime carcinogenesis bioassay, tumor incidence TD50
Experiment: carcinogenic potency in animals, long-term in vivo studies, CPDB compilation (AID 1745844)

`CC(C)CCCCCCOC(=O)c1ccccc1C(=O)OCCCCCCC(C)C` was tested, and the TD50 (mouse, strain B6C3F1, females, in feed, site: liver, lesion: hepatocellular carcinoma, dosed 78 weeks, study length 104 weeks) was 3340 mg/kg/day, the TD50 (mouse, strain B6C3F1, females, in feed, site: liver, lesion: hepatocellular carcinoma, dosed 79 weeks, study length 79 weeks) was 5240 mg/kg/day and the TD50 (mouse, strain B6C3F1, females, in feed, site: liver, lesion: hepatocellular carcinoma, dosed 104 weeks, study length 104 weeks) was 2620 mg/kg/day. For the same molecule, the TD50 (mouse, strain B6C3F1, females, in feed, site: liver, lesion: several types, types named in the paper, dosed 79 weeks, study length 79 weeks) was 2860 mg/kg/day, the TD50 (mouse, strain B6C3F1, females, in feed, site: liver, lesion: several types, types named in the paper, dosed 104 weeks, study length 104 weeks) was 1440 mg/kg/day and the TD50 (mouse, strain B6C3F1, males, in feed, site: liver, lesion: hepatocellular carcinoma, dosed 78 weeks, study length 104 weeks) was 4100 mg/kg/day. For the same molecule, the TD50 (mouse, strain B6C3F1, males, in feed, site: liver, lesion: hepatocellular carcinoma, dosed 79 weeks, study length 79 weeks) was 1460 mg/kg/day, the TD50 (mouse, strain B6C3F1, males, in feed, site: liver, lesion: hepatocellular carcinoma, dosed 104 weeks, study length 104 weeks) was 2920 mg/kg/day and the TD50 (mouse, strain B6C3F1, males, in feed, site: liver, lesion: several types, types named in the paper, dosed 79 weeks, study length 79 weeks) was 1460 mg/kg/day. The TD50 (mouse, strain B6C3F1, males, in feed, site: liver, lesion: several types, types named in the paper, dosed 104 weeks, study length 104 weeks) was 1590 mg/kg/day, the TD50 (rat, strain Fischer 344, females, in feed, site: all sites, lesion: mononuclear-cell leukemia, dosed 78 weeks, study length 104 weeks) was 1140 mg/kg/day and the TD50 (rat, strain Fischer 344, females, in feed, site: all sites, lesion: mononuclear-cell leukemia, dosed 79 weeks, study length 79 weeks) was 1690 mg/kg/day. For the same molecule, the TD50 (rat, strain Fischer 344, females, in feed, site: all sites, lesion: mononuclear-cell leukemia, dosed 104 weeks, study length 104 weeks) was 458 mg/kg/day and 1150 mg/kg/day, the TD50 (rat, strain Fischer 344, females, in feed, site: liver, lesion: hepatocellular adenoma, dosed 79 weeks, study length 79 weeks) was 3440 mg/kg/day and the TD50 (rat, strain Fischer 344, females, in feed, site: liver, lesion: hepatocellular carcinoma, dosed 78 weeks, study length 104 weeks) was 14300 mg/kg/day. For the same molecule, the TD50 (rat, strain Fischer 344, females, in feed, site: liver, lesion: hepatocellular carcinoma, dosed 104 weeks, study length 104 weeks) was 7980 mg/kg/day, the TD50 (rat, strain Fischer 344, males, in feed, site: all sites, lesion: mononuclear-cell leukemia, dosed 78 weeks, study length 104 weeks) was 445 mg/kg/day and the TD50 (rat, strain Fischer 344, males, in feed, site: kidney, lesion: tubular carcinoma, dosed 78 weeks, study length 104 weeks) was 2960 mg/kg/day. It also gave a TD50 (rat, strain Fischer 344, males, in feed, site: kidney, lesion: tubular carcinoma, dosed 104 weeks, study length 104 weeks) of 17200 mg/kg/day, a TD50 (rat, strain Fischer 344, males, in feed, site: liver, lesion: hepatocellular carcinoma, dosed 78 weeks, study length 104 weeks) of 9740 mg/kg/day and a TD50 (rat, strain Fischer 344, males, in feed, site: liver, lesion: hepatocellular carcinoma, dosed 79 weeks, study length 79 weeks) of 2750 mg/kg/day. It also gave a TD50 (rat, strain Fischer 344, males, in feed, site: liver, lesion: hepatocellular carcinoma, dosed 104 weeks, study length 104 weeks) of 2640 mg/kg/day.
In the case of `ClCOCc1ccc(COCCl)cc1`, the TD50 (mouse, strain Ha/ICR, females, i.p., site: abdomen, lesion: sarcoma, dosed 77 weeks, study length 77 weeks) is reported as 3.11 mg/kg/day.
For `CC1=C(/C=C/C(C)=C/C=C/C(C)=C/C=C/C=C(C)/C=C/C=C(C)/C=C/C2=C(C)CCCC2(C)C)C(C)(C)CCC1`, the TD50 (mouse, strain Charles River CD1, females, in feed, site: liver, lesion: hepatocellular adenoma, dosed 105 weeks, study length 105 weeks) was 15900 mg/kg/day (inactive), the carcinogen call (mouse, strain Charles River CD1, females, in feed, site: liver, lesion: hepatocellular carcinoma, dosed 105 weeks, study length 105 weeks) was “negative (inactive)” and the carcinogen call (mouse, strain Charles River CD1, females, in feed, site: lung, lesion: adenocarcinoma, dosed 105 weeks, study length 105 weeks) was “negative (inactive)”. For the same molecule, the TD50 (mouse, strain Charles River CD1, females, in feed, site: lung, lesion: adenoma, dosed 105 weeks, study length 105 weeks) was 93600 mg/kg/day (inactive), the carcinogen call (mouse, strain Charles River CD1, males, in feed, site: liver, lesion: hepatocellular adenoma, dosed 105 weeks, study length 105 weeks) was “negative (inactive)” and the TD50 (mouse, strain Charles River CD1, males, in feed, site: liver, lesion: hepatocellular carcinoma, dosed 105 weeks, study length 105 weeks) was 49700 mg/kg/day (inactive). For the same molecule, the TD50 (mouse, strain Charles River CD1, males, in feed, site: lung, lesion: adenocarcinoma, dosed 105 weeks, study length 105 weeks) was 26400 mg/kg/day (inactive) and the TD50 (mouse, strain Charles River CD1, males, in feed, site: lung, lesion: adenoma, dosed 105 weeks, study length 105 weeks) was 71400 mg/kg/day (inactive).
`CC1CN(N=O)C(=O)O1` (stereo unspecified) showed a TD50 (hamster, strain Syrian Golden, females, by gavage, site: forestomach, lesion: several types, types named in the paper, dosed 28 weeks, study length 60 weeks) of 0.172 mg/kg/day.
`CCN(C)N=O` showed a TD50 (rat, strain Fischer 344, females, in drinking water, site: all sites, lesion: one or several types, types not named, dosed 30 weeks, study length 115 weeks) of 0.0386 mg/kg/day, a TD50 (rat, strain Fischer 344, males, by gavage, site: liver, lesion: hemangiosarcoma, dosed 30 weeks, study length 55 weeks) of 0.12 mg/kg/day and a TD50 (rat, strain Fischer 344, males, by gavage, site: liver, lesion: hepatocellular tumor, benign, dosed 30 weeks, study length 55 weeks) of 0.0503 mg/kg/day. The TD50 (rat, strain Fischer 344, males, by gavage, site: liver, lesion: several types, types named in the paper, dosed 30 weeks, study length 55 weeks) was 0.0503 mg/kg/day, the TD50 (rat, strain Fischer 344, males, by gavage, site: lung, lesion: alveolar/bronchiolar adenoma, dosed 30 weeks, study length 55 weeks) was 0.242 mg/kg/day and the TD50 (rat, strain Fischer 344, males, by gavage, site: nasal mucosa, lesion: one or several types, types not named, dosed 30 weeks, study length 55 weeks) was 0.201 mg/kg/day.
`O=[N+]([O-])c1ccc(-c2nc(NCCO)c3ccccc3n2)s1` showed a TD50 (rat, strain Sprague-Dawley, females, in feed, site: any site (literature study), lesion: several types, types named in the paper, dosed 46 weeks, study length 66 weeks) of 1.87 mg/kg/day, a TD50 (rat, strain Sprague-Dawley, females, in feed, site: intestine, lesion: leiomyosarcoma, dosed 46 weeks, study length 66 weeks) of 3.84 mg/kg/day and a TD50 (rat, strain Sprague-Dawley, females, in feed, site: liver, lesion: bile duct adenoma, dosed 46 weeks, study length 66 weeks) of 132 mg/kg/day.
In the case of `Nc1nc(N)nc(-c2ccccc2)n1`, the TD50 (mouse, strain CD-1 HaM/ICR, females, in feed, site: any site (literature study), lesion: several types, types named in the paper, dosed 77 weeks, study length 94 weeks) is reported as 932 mg/kg/day (inactive), the TD50 (mouse, strain CD-1 HaM/ICR, females, in feed, site: liver, lesion: several types, types named in the paper, dosed 77 weeks, study length 94 weeks) is reported as 2040 mg/kg/day (inactive) and the TD50 (mouse, strain CD-1 HaM/ICR, females, in feed, site: lung, lesion: several types, types named in the paper, dosed 77 weeks, study length 94 weeks) is reported as 9340 mg/kg/day (inactive). The TD50 (mouse, strain CD-1 HaM/ICR, males, in feed, site: any site (literature study), lesion: several types, types named in the paper, dosed 73 weeks, study length 94 weeks) was 439 mg/kg/day (inactive), the TD50 (mouse, strain CD-1 HaM/ICR, males, in feed, site: liver, lesion: several types, types named in the paper, dosed 73 weeks, study length 94 weeks) was 3200 mg/kg/day (inactive) and the TD50 (mouse, strain CD-1 HaM/ICR, males, in feed, site: lung, lesion: several types, types named in the paper, dosed 73 weeks, study length 94 weeks) was 304 mg/kg/day (inactive). The TD50 (rat, strain Charles River CD (Sprague-Dawley), males, in feed, site: any site (literature study), lesion: several types, types named in the paper, dosed 77 weeks, study length 94 weeks) was 16.3 mg/kg/day (inactive) and the carcinogen call (rat, strain Charles River CD (Sprague-Dawley), males, in feed, site: liver, lesion: several types, types named in the paper, dosed 77 weeks, study length 94 weeks) was “negative (inactive)”.
In the case of `O=CC(O)C(O)C(O)C(O)CO` (stereo unspecified), the carcinogen call (mouse, strain AP Alderly Park, females, in feed, site: any site (literature study), lesion: several types, types named in the paper, dosed 100 weeks, study length 100 weeks) is reported as “negative (inactive)”, the TD50 (mouse, strain AP Alderly Park, females, in feed, site: liver, lesion: hepatoma, dosed 100 weeks, study length 100 weeks) is reported as 538000 mg/kg/day (inactive) and the carcinogen call (mouse, strain AP Alderly Park, females, in feed, site: lung, lesion: adenoma, dosed 100 weeks, study length 100 weeks) is reported as “negative (inactive)”. For the same molecule, the TD50 (mouse, strain AP Alderly Park, males, in feed, site: any site (literature study), lesion: several types, types named in the paper, dosed 100 weeks, study length 100 weeks) was 132000 mg/kg/day (inactive), the carcinogen call (mouse, strain AP Alderly Park, males, in feed, site: liver, lesion: hepatoma, dosed 100 weeks, study length 100 weeks) was “negative (inactive)” and the carcinogen call (mouse, strain AP Alderly Park, males, in feed, site: lung, lesion: adenoma, dosed 100 weeks, study length 100 weeks) was “negative (inactive)”. The TD50 (rat, strain AP Alderly Park, females, in feed, site: any site (literature study), lesion: several types, types named in the paper, dosed 104 weeks, study length 104 weeks) was 7790 mg/kg/day (inactive), the carcinogen call (rat, strain AP Alderly Park, females, in feed, site: liver, lesion: one or several types, types not named, dosed 104 weeks, study length 104 weeks) was “negative (inactive)” and the carcinogen call (rat, strain AP Alderly Park, males, in feed, site: any site (literature study), lesion: several types, types named in the paper, dosed 104 weeks, study length 104 weeks) was “negative (inactive)”. The TD50 (rat, strain AP Alderly Park, males, in feed, site: liver, lesion: hepatoma, dosed 104 weeks, study length 104 weeks) was 133000 mg/kg/day (inactive).
`Brc1cc(Br)c(-c2c(Br)c(Br)c(Br)c(Br)c2Br)c(Br)c1Br` showed a TD50 (mouse, strain B6C3F1, females, in feed, site: any site (literature study), lesion: several types, types named in the paper, dosed 78 weeks, study length 78 weeks) of 4.9 mg/kg/day, a TD50 (mouse, strain B6C3F1, females, in feed, site: liver, lesion: hepatocellular carcinoma, dosed 78 weeks, study length 78 weeks) of 13.7 mg/kg/day and a TD50 (mouse, strain B6C3F1, females, in feed, site: liver, lesion: neoplastic nodule, dosed 78 weeks, study length 78 weeks) of 4.89 mg/kg/day. For the same molecule, the TD50 (mouse, strain B6C3F1, males, in feed, site: any site (literature study), lesion: several types, types named in the paper, dosed 78 weeks, study length 78 weeks) was 2.07 mg/kg/day, the TD50 (mouse, strain B6C3F1, males, in feed, site: liver, lesion: hepatoblastoma, dosed 78 weeks, study length 78 weeks) was 35.4 mg/kg/day and the TD50 (mouse, strain B6C3F1, males, in feed, site: liver, lesion: hepatocellular carcinoma, dosed 78 weeks, study length 78 weeks) was 3.44 mg/kg/day. For the same molecule, the TD50 (mouse, strain B6C3F1, males, in feed, site: liver, lesion: neoplastic nodule, dosed 78 weeks, study length 78 weeks) was 2.86 mg/kg/day.
